Read-outs that look alike come from different tables or passages of the source.
Assays:
[1] = molecular target: T1, Kv2.1 (Homo sapiens, UniProt Q14721); assay: FLIPR thallium influx assay, potassium sulphate stimulated CHO-Kv2.1 cells; format: cell-based; settings: potassium sulphate stimulated CHO-Kv2.1, at 30 μM; read-out: inhibition of thallium flux
T1 construct: host or cells: CHO
Protocol: HEK-293 cells were transfected with human THIK-1, TREK-1, TWIK-2, or mouse THIK-1 cDNA cloned into pcDNA3.1, using either Fugene HD transfection reagent (Promega) or electroporation (MaxCyte STX instrument). Cells stably expressing the relevant genes were selected based on resistance to 500 μg/ml geneticin (Gibco). For human THIK-1 and TWIK-2 expressing cells, monoclonal lines were isolated by limited dilution cloning; mouse THIK-1 and human TREK-1 expressing cells were maintained as polyclonal pools. The HEK-293 pools and monoclones stably expressing the relevant genes were maintained in DMEM (Life Technologies), supplemented with 10% FCIII (HyClone, Fetal clone III) and 500 μg/ml geneticin. A CHO-Kv2.1 cell line was purchased from Millipore (accession NM_004975) and maintained in F12 (Life Technologies), supplemented with 10% FCSIII (Thermo Scientific) and 500 μg/ml geneticin (Life Technologies). […]
A fluorescence-based thallium influx assay (Molecular Devices potassium assay kit) was used to monitor channel activity. […] Using a fluorescent imaging plate reader (FLIPR) tetra plate reader, 15 μl thallium stimulus solution was added to the cell plate and the fluorescence signal recorded every second for 1 min (excitation: 470–495 nm, emission: 515–575 nm).

[2] = CNS PK study in mice; format: in vivo; settings: 30 mg/kg single oral, male mice; for Kp: C57BL/6, mouse, 0.25-2 h post dose
Protocol: In CNS PK studies, rodents (C57BL/6 mice or Sprague Dawley rats) were administered C101248 by oral gavage at 10 or 30 mg/kg. At specified timepoints post dose (0.5, 1, 2 or 4 h), blood samples were collected and processed to plasma (centrifugation at 5000 rpm, 4 °C for 10 min). Immediately following blood withdrawal, cerebrospinal fluid (CSF) samples were collected from the cisterna magna, whole body perfusion was conducted, and brain samples were collected and weighed. Samples were stored frozen at −80 ± 10 °C until analysis. Plasma, CSF, and brain samples were analysed using a fit for purpose bioanalytical method (LC-MS/MS) against a calibration curve containing QC samples. Brain:plasma and CSF:plasma were calculated based on brain concentration/plasma concentration at the same timepoint. Unbound partition coefficient (Kpu,u) values were calculated based on unbound brain concentration/unbound plasma concentration at the same timepoint. Unbound concentrations were derived by adjusting plasma concentrations for the fraction unbound in plasma based on in vitro plasma protein binging (PPB) values and brain concentrations for the unbound fraction in brain tissue based on in vitro brain tissue binding (BTB) values.

T1 sequence (Q14721 whole entry): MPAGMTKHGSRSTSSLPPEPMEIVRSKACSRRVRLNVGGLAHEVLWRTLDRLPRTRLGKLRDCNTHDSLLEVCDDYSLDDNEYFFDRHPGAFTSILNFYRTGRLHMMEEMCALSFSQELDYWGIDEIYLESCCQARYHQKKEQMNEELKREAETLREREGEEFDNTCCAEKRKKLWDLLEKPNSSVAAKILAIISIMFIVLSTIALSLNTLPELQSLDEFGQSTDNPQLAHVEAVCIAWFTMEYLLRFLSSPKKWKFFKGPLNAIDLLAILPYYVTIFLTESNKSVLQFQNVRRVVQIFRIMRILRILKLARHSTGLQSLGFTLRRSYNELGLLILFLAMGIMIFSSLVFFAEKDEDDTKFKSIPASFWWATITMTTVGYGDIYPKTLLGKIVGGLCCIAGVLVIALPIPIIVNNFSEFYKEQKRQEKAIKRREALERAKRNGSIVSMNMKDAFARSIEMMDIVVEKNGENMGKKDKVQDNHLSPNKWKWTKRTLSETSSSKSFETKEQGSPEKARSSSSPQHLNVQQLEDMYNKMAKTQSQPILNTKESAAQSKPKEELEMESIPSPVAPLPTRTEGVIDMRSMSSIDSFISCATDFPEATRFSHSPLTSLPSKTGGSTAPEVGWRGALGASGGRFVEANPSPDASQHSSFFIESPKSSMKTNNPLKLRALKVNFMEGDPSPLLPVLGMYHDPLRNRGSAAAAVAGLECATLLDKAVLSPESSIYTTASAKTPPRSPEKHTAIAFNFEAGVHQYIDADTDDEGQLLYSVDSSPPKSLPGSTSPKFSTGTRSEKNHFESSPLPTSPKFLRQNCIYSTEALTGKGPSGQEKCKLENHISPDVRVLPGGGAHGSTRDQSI

- inhibition at 30 µM [1]: -3%
- time of maximal concentration (Cmax) ([2]; brain, CSF and plasma (all matrices)): 1 h
- Kp ([2]; CSF / unbound plasma, read-out: CSF:unbound plasma): 0.8 to 1.2
- Kp ([2]; brain (unbound) / plasma (unbound), read-out: unbound partition coefficient (Kpu,u)): 0.7 to 1.5
SMILES: Nc1nonc1-c1nc2ccccc2n1Cc1ccncc1 [C101248]

Reference: PMC9841576, “Characterisation of C101248: A novel selective THIK-1 channel inhibitor for the modulation of microglial NLRP3-inflammasome” (Neuropharmacology, 2023)
